Tests used:
[1] = pKa determination by titration with aqueous potassium hydroxide
Description: The pKa value was taken as the pH at ½-equivalent volume of potassium hydroxide and corrected against a standard curve prepared from measurements on maleic acid, succinic acid, methacrylic acid, propanoic acid and pentanoic acid.

[2] = Effect of hydrogen peroxide oxidation of thioether sulphur on pKa; type: physicochemical; conditions: 0.82-2.17 eq. H2O2 (30%), after 2 days at room temperature, average pKa of oxidation products
Protocol: Five aqueous (35 ml) solutions of GALA (approx 2 mmol) was prepared) and varying amounts of hydrogen peroxide (0.82-2.17 eq., 30%) added. The average pKa value of the oxidation products was assessed after 2 days at room temperature, and the relation between pKa and mol ratio H2O2/S can be seen in FIG. 1.

[3] = Solubility of the product in solvents; type: physicochemical
[4] = in water, pH at 1/2-equivalent volume of 0.1 M KOH, corrected against a standard curve

| SMILES | pKa ([1]; water) | pKa [1, 4] | solubility in hexane [3] | solubility in methanol [3] | also measured |
| --- | --- | --- | --- | --- | --- |
| CCC(CO)(CO)C(=O)O [DMBA, 2,2-bis-(hydroxymethyl)butanoic acid, reference compound] | 4.55 | – | – | – | – |
| CC(SCCCOCC(O)CO)C(=O)O (stereo not drawn) [GALA, Glycerol Monoallyl Ether-Thiolactic Acid Adduct] | – | 3.67 | not soluble | soluble | reduction of pKa value by addition of hydrogen peroxide [2]: approximately 1 unit; solubility in ethanol/toluene (1/4) ([3]; ethanol/toluene (1/4)): soluble; solubility in water ([3]; water): soluble |
| CCC(CO)(CO)COCCCSC(C)C(=O)O (stereo not drawn) [TELA, Trimethyolpropane Monoallyl Ether-Thiolactic Acid Adduct] | – | – | not soluble | soluble | solubility in toluene ([3]; toluene): soluble |
| O=C(O)CSCCCOCC(O)CO (stereo not drawn) [GAMA, Glycerol 1-Monoallyl Ether-Mercaptoacetic Acid] | – | 3.60 | – | – | – |
| CC(CO)(CO)C(=O)O [DMPA, 2,2-bis-(hydroxymethyl)propanoic acid, reference compound] | 4.64 | – | – | – | – |
